The source of these data is ChEMBL document CHEMBL1146187, “Synthesis, molecular modeling studies, and selective inhibitory activity against monoamine oxidase of N,N'-bis[2-oxo-2H-benzopyran]-3-carboxamides” (Bioorg Med Chem Lett, 2006).

In test [1] the target is T1, Amine oxidase [flavin-containing] B (Bos taurus, UniProt P56560).
T1 sequence (P56560 whole entry): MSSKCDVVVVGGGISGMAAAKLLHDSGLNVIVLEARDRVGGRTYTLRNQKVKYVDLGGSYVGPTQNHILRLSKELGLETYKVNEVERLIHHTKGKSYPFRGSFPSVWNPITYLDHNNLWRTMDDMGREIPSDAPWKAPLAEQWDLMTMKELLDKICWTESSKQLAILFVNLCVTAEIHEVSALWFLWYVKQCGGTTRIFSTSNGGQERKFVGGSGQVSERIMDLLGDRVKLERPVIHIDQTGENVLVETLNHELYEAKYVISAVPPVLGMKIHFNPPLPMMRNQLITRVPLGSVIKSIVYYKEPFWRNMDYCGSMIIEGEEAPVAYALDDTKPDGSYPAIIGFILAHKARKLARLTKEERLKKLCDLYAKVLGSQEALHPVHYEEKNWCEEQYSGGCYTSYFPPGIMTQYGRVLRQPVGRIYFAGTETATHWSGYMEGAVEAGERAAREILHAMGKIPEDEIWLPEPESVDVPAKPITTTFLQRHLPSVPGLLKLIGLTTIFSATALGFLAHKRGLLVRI
Put plainly: Inhibition of bovine brain mitochondrial MAOB.

For test [2], the target named is T2, Amine oxidase [flavin-containing] A (Bos taurus, UniProt P21398).
T2 sequence (P21398 whole entry): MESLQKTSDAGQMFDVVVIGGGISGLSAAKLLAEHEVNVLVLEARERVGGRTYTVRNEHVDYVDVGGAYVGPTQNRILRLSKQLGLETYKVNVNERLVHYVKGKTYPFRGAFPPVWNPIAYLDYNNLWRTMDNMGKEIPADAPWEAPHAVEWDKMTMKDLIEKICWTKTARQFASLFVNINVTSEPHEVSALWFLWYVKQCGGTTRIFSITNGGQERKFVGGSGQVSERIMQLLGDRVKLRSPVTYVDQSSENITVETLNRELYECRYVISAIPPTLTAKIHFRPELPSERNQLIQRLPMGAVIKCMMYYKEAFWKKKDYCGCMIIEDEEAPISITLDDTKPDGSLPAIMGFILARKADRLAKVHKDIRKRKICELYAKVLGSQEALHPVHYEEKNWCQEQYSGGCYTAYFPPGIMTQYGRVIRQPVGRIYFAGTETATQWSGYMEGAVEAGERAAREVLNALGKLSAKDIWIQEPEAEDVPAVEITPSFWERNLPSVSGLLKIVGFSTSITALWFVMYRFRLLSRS
In words: Inhibition of bovine brain mitochondrial MAOA.

Take `O=C(NCCCCCCNC(=O)c1cc2ccccc2oc1=O)c1cc2ccccc2oc1=O`: the Ki in test [1] was 1.82 µM; in test [2] it was 0.00398 µM.

Regarding `O=C(NCCCCNC(=O)c1cc2ccccc2oc1=O)c1cc2ccccc2oc1=O`, the Ki in test [1] was 1 µM; in test [2], 0.001 µM.

As for `O=C(N[C@H]1CCCC[C@@H]1NC(=O)c1cc2ccccc2oc1=O)c1cc2ccccc2oc1=O`, the Ki is 1.41 µM in test [1] and 0.182 µM in test [2].

Regarding `O=C(Nc1ccccc1NC(=O)c1cc2ccccc2oc1=O)c1cc2ccccc2oc1=O`, the Ki in test [1] is 3.02 µM; in test [2] it was 0.0162 µM.

For `COc1ccc2cc(C(=O)NCCCCNC(=O)c3cc4ccc(OC)cc4oc3=O)c(=O)oc2c1`, the Ki was 1.41 µM in test [1] and 0.17 µM in test [2].

In the case of `O=C(Nc1ccc(NC(=O)c2cc3ccccc3oc2=O)cc1)c1cc2ccccc2oc1=O`, the Ki in test [1] is 1.74 µM; in test [2], 2.4 µM.

For the compound `O=C(NCCNC(=O)c1cc2ccccc2oc1=O)c1cc2ccccc2oc1=O`, the Ki is 6.31 µM in test [1] and 0.0331 µM in test [2].
